Test [1] concerns Staphylococcus aureus. Briefly: Antibacterial activity against Staphylococcus aureus ATCC 25923 assessed as initial concentration required for appearance of zone of inhibition after 24 hr. Format: functional.
The test system of test [2] is Bacillus subtilis. Description: Antibacterial activity against Bacillus subtilis ATCC 11774 assessed as growth inhibition after 24 hr by serial broth dilution method. To be noted: ATCC 11774, 24 h. Format: functional.
In test [3] the test system is Pseudomonas aeruginosa. Briefly: Antibacterial activity against Pseudomonas aeruginosa ATCC 27853 assessed as growth inhibition at 100 ug/ml after 24 hr by Kirby-Bauer disk diffusion method. Format: functional. To be noted: ATCC 27853, 24 h, read-out: DIZ. In general terms: A growth-free zone around the sample is the usual read-out of agar diffusion tests.
Test [4] has as its system Escherichia coli. Description: Antibacterial activity against Escherichia coli ATCC 25922 assessed as initial concentration required for appearance of zone of inhibition after 24 hr. Format: functional.
Test [5] deals with Escherichia coli. Briefly: microbe, parasite or virus in culture. To be noted: ATCC 25922, 24 h, read-out: DIZ.
Description: Antibacterial activity against Escherichia coli ATCC 25922 assessed as growth inhibition at 300 ug/ml after 24 hr by Kirby-Bauer disk diffusion method
For test [6], the system named is Candida albicans. Briefly: Antifungal activity against Candida albicans ATCC 66027 assessed as growth inhibition after 24 hr by serial broth dilution method. The class given is functional. To be noted: ATCC 66027, 24 h.
Test [7] deals with Pseudomonas aeruginosa. Description: Antibacterial activity against Pseudomonas aeruginosa ATCC 27853 assessed as growth inhibition at 300 ug/ml after 24 hr by Kirby-Bauer disk diffusion method. Format: functional. To be noted: ATCC 27853, 24 h, read-out: DIZ.
The test system of test [8] is Staphylococcus aureus. Briefly: Antibacterial activity against Staphylococcus aureus ATCC 25923 assessed as growth inhibition at 300 ug/ml after 24 hr by Kirby-Bauer disk diffusion method. The class given is functional. Particulars: ATCC 25923, 24 h, read-out: DIZ.
Test [9] deals with Pseudomonas aeruginosa. Briefly: Antibacterial activity against Pseudomonas aeruginosa ATCC 27853 assessed as growth inhibition after 24 hr by serial broth dilution method. The class given is functional. To be noted: ATCC 27853, 24 h. For orientation: Dilution methods test growth across graded concentrations, often in twofold steps.
For test [10], the system named is Pseudomonas aeruginosa. Briefly: Antibacterial activity against Pseudomonas aeruginosa ATCC 27853 assessed as initial concentration required for appearance of zone of inhibition after 24 hr. The class given is functional.
Test [11] deals with Candida albicans. Briefly: Antifungal activity against Candida albicans ATCC 66027 assessed as growth inhibition at 300 ug/ml after 24 hr by Kirby-Bauer disk diffusion method. Format: functional. To be noted: ATCC 66027, 24 h, read-out: DIZ.
Test [12] deals with Staphylococcus aureus. Briefly: Antibacterial activity against Staphylococcus aureus ATCC 25923 assessed as growth inhibition after 24 hr by serial broth dilution method. Format: functional. Particulars: ATCC 25923, 24 h.
For test [13], the system named is Candida albicans. Briefly: Antifungal activity against Candida albicans ATCC 66027 assessed as growth inhibition at 20 ug/ml after 24 hr by Kirby-Bauer disk diffusion method. Format: functional. Particulars: ATCC 66027, 24 h, read-out: DIZ.
In test [14] the test system is Bacillus subtilis. Briefly: Antibacterial activity against Bacillus subtilis ATCC 11774 assessed as growth inhibition at 100 ug/ml after 24 hr by Kirby-Bauer disk diffusion method. Format: functional. To be noted: ATCC 11774, 24 h, read-out: DIZ.
In test [15] the test system is Escherichia coli. Briefly: microbe, parasite or virus in culture. To be noted: ATCC 25922, 24 h, read-out: DIZ. The source holds these as a separate data set.
Description: Antibacterial activity against Escherichia coli ATCC 25922 assessed as growth inhibition at 100 ug/ml after 24 hr by Kirby-Bauer disk diffusion method
Test [16] has as its system Candida albicans. Description: Antifungal activity against Candida albicans ATCC 66027 assessed as growth inhibition at 100 ug/ml after 24 hr by Kirby-Bauer disk diffusion method. Format: functional. To be noted: ATCC 66027, 24 h, read-out: DIZ.
For test [17], the system named is Staphylococcus aureus. Description: Antibacterial activity against Staphylococcus aureus ATCC 25923 assessed as growth inhibition at 100 ug/ml after 24 hr by Kirby-Bauer disk diffusion method. Format: functional. Particulars: ATCC 25923, 24 h, read-out: DIZ.
The subject of test [18] is Escherichia coli. Description: Antibacterial activity against Escherichia coli ATCC 25922 assessed as growth inhibition after 24 hr by serial broth dilution method. The class given is functional. To be noted: ATCC 25922, 24 h.
In test [19] the test system is Candida albicans. Briefly: Antifungal activity against Candida albicans ATCC 66027 assessed as initial concentration required for appearance of zone of inhibition after 24 hr. Format: functional.
In test [20] the test system is Bacillus subtilis. Briefly: Antibacterial activity against Bacillus subtilis ATCC 11774 assessed as growth inhibition at 300 ug/ml after 24 hr by Kirby-Bauer disk diffusion method. Format: functional. Particulars: ATCC 11774, 24 h, read-out: DIZ.
Test [21] has as its system Bacillus subtilis. Description: Antibacterial activity against Bacillus subtilis ATCC 11774 assessed as initial concentration required for appearance of zone of inhibition after 24 hr. The class given is functional.
In test [22] the test system is Escherichia coli. Description: Antibacterial activity against Escherichia coli ATCC 25922 assessed as growth inhibition at 70 ug/ml after 24 hr by Kirby-Bauer disk diffusion method. The class given is functional. Particulars: ATCC 25922, 24 h, read-out: DIZ.
The subject of test [23] is Escherichia coli. Description: Antibacterial activity against Escherichia coli ATCC 25922 assessed as growth inhibition at 40 ug/ml after 24 hr by Kirby-Bauer disk diffusion method. The class given is functional. To be noted: ATCC 25922, 24 h, read-out: DIZ.

Values after ≈ are worked out from the molar mass of the structure shown.

For the compound `CC1CCC(NC(=O)NCCn2c(-c3ccccc3)nc3ccc([N+](=O)[O-])cc3c2=O)CC1` (stereo not given), the Activity worked out at 100 µg/mL in the test on Staphylococcus aureus [1]; 70 µg/mL in the test on Escherichia coli [4]; 70 µg/mL in the test with Pseudomonas aeruginosa [10]; 20 µg/mL with Candida albicans [19]; 100 µg/mL in the test on Bacillus subtilis [21]. Moreover, the MIC in the test on Bacillus subtilis [2] amounted to 100 µg/mL (≈ 222 µM); in the test with Candida albicans [6], 10 µg/mL (≈ 22.2 µM); in the test with Pseudomonas aeruginosa [9] it was 70 µg/mL (≈ 156 µM); in the test on Staphylococcus aureus [12], 100 µg/mL (≈ 222 µM); in the test on Escherichia coli [18], 40 µg/mL (≈ 89 µM). For the same compound, the zone of inhibition at 100 µg/mL with Pseudomonas aeruginosa [3] worked out at 12 mm; in the test with Bacillus subtilis [14], 11 mm; with Escherichia coli [15], 13 mm; in the test with Candida albicans [16], 15 mm; in the test with Staphylococcus aureus [17] it was 11 mm. In addition, the zone of inhibition at 300 µg/mL in the test on Escherichia coli [5] turned out to be 17 mm; with Pseudomonas aeruginosa [7], 21 mm; in the test on Staphylococcus aureus [8] it was 14 mm; in the test on Candida albicans [11] it was 20 mm; in the test with Bacillus subtilis [20], 14 mm. Besides, the zone of inhibition at 20 µg/mL with Candida albicans [13] was 11 mm. For the same compound, in the test with Escherichia coli [22], the zone of inhibition at 70 µg/mL was found to be 11 mm.
For `O=C(NCCn1c(-c2ccccc2)nc2ccc([N+](=O)[O-])cc2c1=O)Nc1ccccc1Cl`, the Activity with Staphylococcus aureus [1] is 100 µg/mL; in the test on Escherichia coli [4], 70 µg/mL; with Pseudomonas aeruginosa [10], 70 µg/mL; in the test with Candida albicans [19], 40 µg/mL; in the test on Bacillus subtilis [21], 70 µg/mL. Moreover, the minimum inhibitory concentration (MIC) in the test on Bacillus subtilis [2] is 70 µg/mL (≈ 151 µM); in the test on Candida albicans [6] it was 20 µg/mL (≈ 43.1 µM); in the test on Pseudomonas aeruginosa [9], 100 µg/mL (≈ 216 µM); in the test on Staphylococcus aureus [12] it was 100 µg/mL (≈ 216 µM); in the test on Escherichia coli [18], 70 µg/mL (≈ 151 µM). The zone of inhibition at 100 µg/mL with Pseudomonas aeruginosa [3] was 13 mm; in the test on Bacillus subtilis [14] it was 12 mm; in the test with Escherichia coli [15], 14 mm; in the test with Candida albicans [16] it was 16 mm; with Staphylococcus aureus [17] it was 11 mm. Moreover, the zone of inhibition at 300 µg/mL was found to be 18 mm with Escherichia coli [5]; 19 mm with Pseudomonas aeruginosa [7]; 14 mm with Staphylococcus aureus [8]; 20 mm in the test on Candida albicans [11]; 15 mm with Bacillus subtilis [20]. The zone of inhibition at 70 µg/mL in the test with Escherichia coli [22] is 11 mm.
Regarding `Cc1ccccc1NC(=O)NCCn1c(-c2ccccc2)nc2ccc([N+](=O)[O-])cc2c1=O`, the Activity with Staphylococcus aureus [1] came to 70 µg/mL; in the test on Escherichia coli [4], 40 µg/mL; with Pseudomonas aeruginosa [10] it was 70 µg/mL; in the test with Candida albicans [19], 20 µg/mL; in the test on Bacillus subtilis [21] it was 100 µg/mL. Also, the MIC in the test with Bacillus subtilis [2] was determined as 70 µg/mL (≈ 158 µM); in the test on Candida albicans [6], 20 µg/mL (≈ 45.1 µM); in the test on Pseudomonas aeruginosa [9], 40 µg/mL (≈ 90.2 µM); with Staphylococcus aureus [12], 70 µg/mL (≈ 158 µM); in the test on Escherichia coli [18], 40 µg/mL (≈ 90.2 µM). The zone of inhibition at 100 µg/mL amounted to 12 mm in the test with Pseudomonas aeruginosa [3]; 11 mm in the test on Bacillus subtilis [14]; 13 mm in the test on Escherichia coli [15]; 16 mm in the test on Candida albicans [16]; 12 mm in the test with Staphylococcus aureus [17]. The zone of inhibition at 300 µg/mL turned out to be 16 mm in the test on Escherichia coli [5]; 18 mm in the test on Pseudomonas aeruginosa [7]; 14 mm in the test on Staphylococcus aureus [8]; 19 mm in the test with Candida albicans [11]; 14 mm in the test with Bacillus subtilis [20]. The zone of inhibition at 40 µg/mL in the test on Escherichia coli [23] came out at 11 mm.
As to `Cc1ccc(NC(=O)NCCn2c(-c3ccccc3)nc3ccc([N+](=O)[O-])cc3c2=O)cc1`, the Activity in the test with Staphylococcus aureus [1] came out at 70 µg/mL; with Escherichia coli [4] it was 40 µg/mL; with Pseudomonas aeruginosa [10], 70 µg/mL; in the test with Candida albicans [19], 20 µg/mL; in the test with Bacillus subtilis [21], 70 µg/mL. Also, the MIC with Bacillus subtilis [2] was 70 µg/mL (≈ 158 µM); in the test on Candida albicans [6], 20 µg/mL (≈ 45.1 µM); with Pseudomonas aeruginosa [9], 70 µg/mL (≈ 158 µM); with Staphylococcus aureus [12], 70 µg/mL (≈ 158 µM); with Escherichia coli [18] it was 40 µg/mL (≈ 90.2 µM). In addition, the zone of inhibition at 100 µg/mL in the test on Pseudomonas aeruginosa [3] worked out at 12 mm; in the test with Bacillus subtilis [14], 12 mm; in the test with Escherichia coli [15], 14 mm; in the test with Candida albicans [16], 14 mm; in the test with Staphylococcus aureus [17], 12 mm. The zone of inhibition at 300 µg/mL amounted to 17 mm with Escherichia coli [5]; 17 mm in the test with Pseudomonas aeruginosa [7]; 14 mm in the test on Staphylococcus aureus [8]; 17 mm with Candida albicans [11]; 15 mm in the test on Bacillus subtilis [20]. Moreover, in the test on Escherichia coli [23], the zone of inhibition at 40 µg/mL amounted to 11 mm.

The MIC is the lowest concentration that inhibits growth of the organism.

The values are drawn from ChEMBL document CHEMBL3045273, “Synthesis, characterization, and pharmacological evaluation of 1-[2-(6-nitro-4-oxo-2-phenyl-4H-quinazolin-3-yl)-ethyl]-3-phenyl ureas” (2013).
